{"source": "patent US7531320B2", "about": "“Modulation of β-catenin/TCF-activated transcription” (priority 2003, dated 2009)", "type_in_all_cases": "cell-based, human", "key": {"cyclin D1 promoter": {"tested_on": "cyclin D1 promoter", "assay": "ChIP assay, cyclin D1 promoter in SW480 cells", "details": "25 μM", "method": "FIG. 5. COMPOUND 1 inhibits the expression of cyclin D1. • A. Cyclin D1 levels are decreased with COMPOUND 1 treatment. Western blot analysis was performed on 25 μg of SW480 whole cell lysates treated for 4, 8, or 24 hours with either 25 μM of COMPOUND 1 or control (0.5% DMSO). Immunoblotting was performed using anti-Cyclin D1 antibodies (Santa Cruz Biotechnology Inc.). • B. In vivo occupancy of cyclin D1 and c-myc promoters by CBP and p300. […] ChIP assays were performed on promoter of c-myc from SW480 cells which was treated for 8 hours with COMPOUND 1 (25 μM) or control (0.5% DMSO). CBP (AC-26, a generous gift from Dr. David Livingston, Harvard University, Boston, Mass.) or p300 (C-20, Santa Cruz Biotechnology Inc.) specific antibodies were used to evaluate the promoter occupancy by CBP or p300 in presence of COMPOUND 1 or control (DMSO) treatment.\nFormaldehyde cross-linking and chromatin immunoprecipitation assays of SW480 cells were performed as described previously (Barlev et al., “Acetylation of p53 activates transcription through recruitment of coactivators/histone acetyltransferases,” Mol. Cell 8:1243-54 (2001); El-Osta et al., “Analysis of chromatin-immunopurified MeCP2-associated fragments,” Biochem. Biophys. Res. Commun. 289:733-37 (2001); Shang et al., “Formation of the androgen receptor transcription Complex,” Mol. Cell 9:601-10 (2002)). […]"}, "HCT116 cells": {"tested_on": "HCT116 cells", "assay": "FACS cell cycle analysis (propidium iodide), HCT116 cells", "details": "25 μM, 24 hours", "method": "(§1) FIG. 6. • A. COMPOUND 1 arrests cells in G1. FACS analysis was performed on SW480 (lower panel) and HCT116 (upper panel) cells treated for 24 hours with either COMPOUND 1 (25 μM) (right) or control (0.5% DMSO (left). 5.5×10^6 cells were fixed and stained with propidium iodide (PI). G0/G1, S, and G2/M are indicated by arrows. • B. COMPOUND 1 selectively activates caspases in colon carcinoma cell lines. SW480 and HCT116 (left graph) cells (10^5) along with the normal colonocytes, CCD18Co (right graph) were treated with either control (0.5% DMSO) or COMPOUND 1 (25 μM). 24 hours post treatment, cells were lysed and the caspase-3/7 enzymatic activities were measured. Relative fluorescence units (RFU) were calculated by subtracting the unit values of the blank (control, without cells) from the treated samples (COMPOUND 1 or control) and plotted.\n(§2) For FACS analysis, approx. 5×10^6 cells from PNRI-treated or vehicle-treated were fixed with 70% chilled ethanol and stored at −20° C. for at least 30 minutes. […] 10,000 stained cells for each sample were acquired using Beckman Coulter EPICS XL-MCL Flow Cytometry and the percentage of cells in different phase of the cell cycle was determined by Expo32 ADC software (Coulter Corporation, Miami, Fla., 33196). […]"}, "SW480 cells": {"tested_on": "SW480 cells", "assay": "FACS cell cycle analysis (propidium iodide), SW480 cells", "details": "25 μM, 24 hours", "method": "as §1, §2"}}, "data": [{"smiles": "O=C1C(Cc2ccc(O)cc2)N2C(=O)CCN(C(=O)NCc3ccccc3)C2CN1Cc1cccc2ccccc12", "note": "(stereo not drawn) [COMPOUND 1]", "values": [{"measurement": "Association of CBP with the cyclin D1 promoter", "setting": "cyclin D1 promoter", "value": "completely and selectively blocks"}, {"measurement": "Cell cycle distribution (DNA content by FACS)", "setting": "HCT116 cells", "value": "increased accumulation at G1/S-phase"}, {"measurement": "Cell cycle distribution (DNA content by FACS)", "setting": "SW480 cells", "value": "increased accumulation at G1/S-phase"}]}]}
